Assay results as given in patent US20230117034A1, “PYRAZOLOTRIAZINES” (Bayer Aktiengesellschaft, priority 2019, published 2023).
pIC50: −log10 of the molar value.

Experiments:
[1] = target: T1, CDK2/CycE (Homo sapiens, UniProt P24941); test: CDK2/CycE kinase assay (TR-FRET, 2 mM ATP); assay type: biochemical; conditions: 2 mM ATP (high ATP); median; read-out: CDK2/CyclinE, 2 mM ATP (high ATP), IC50 (median)
T1 construct: purchased ProQinase GmbH (Freiburg, Germany); host or cells: insect cells (Sf9)
Procedure, shortened: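 GST-tagged human CDK2 and CycE from Sf9 cells, about 10 ng/ml, pre-incubated 15 min at 22 °C with compound in Tris/HCl pH 8.0 buffer. Reaction with 2 mM ATP and 0.75 µM biotinylated peptide for 25 min at 22 °C. Phospho-RB antibody TR-FRET (665/620 nm ratio) read after 1 h; data normalised to no-inhibitor and no-enzyme controls.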

[2] = target: T2, CDK9/CycT1 (Homo sapiens, UniProt P50750); test: CDK9/CycT1 high ATP kinase assay (TR-FRET, 2 mM ATP); assay type: biochemical; conditions: 2 mM ATP (high ATP); median; read-out: CDK9/CyclinT1, 2 mM ATP (high ATP), IC50 (median)
T2 construct: Recombinant full-length His-tagged human CDK9 and CycT1; purchased Life Technologies PV4131; host or cells: insect cells
Procedure, shortened: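 Full-length His-tagged human CDK9/CycT1 (insect cell, ~0.5 μg/mL) preincubated 15 min at 22 °C with compound in Tris pH 8.0, MgCl2, DTT buffer before reaction with biotinylated peptide substrate at high ATP (2 mM).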

[3] = target: T3, CDK12 (nuclear staining in CAL-120 cells) (Homo sapiens, UniProt Q9NYV4); test: CDK12 nuclear protein level: immunofluorescence/high content analysis (CAL-120); assay type: cell-based; conditions: for DC50: CAL-120 cells, 24 h, immunofluorescence, 50% reduction of nuclear CDK12 staining intensity, median, read-out: CDK12 degradation IF, DC50- [mol/l] (median); for (IC50 CDK12 high ATP) to (Degradation DC50 CDK12) ratio: ratio of IC50 CDK12 high ATP kinase assay to DC50 CDK12 degradation (IF, CAL-120)
T3 construct: endogenous in cells; host or cells: CAL-120 human breast cancer cells (DSMZ ACC 459)
Procedure, shortened: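 CAL-120 cells were treated with compound for 24 h at 37 °C, fixed with PFA and immunostained for CDK12. Nuclear CDK12 intensity was quantified by automated image analysis and normalized to DMSO and control. DC50 is the concentration giving 50% reduction of nuclear staining.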

T3 sequence (Q9NYV4 whole entry): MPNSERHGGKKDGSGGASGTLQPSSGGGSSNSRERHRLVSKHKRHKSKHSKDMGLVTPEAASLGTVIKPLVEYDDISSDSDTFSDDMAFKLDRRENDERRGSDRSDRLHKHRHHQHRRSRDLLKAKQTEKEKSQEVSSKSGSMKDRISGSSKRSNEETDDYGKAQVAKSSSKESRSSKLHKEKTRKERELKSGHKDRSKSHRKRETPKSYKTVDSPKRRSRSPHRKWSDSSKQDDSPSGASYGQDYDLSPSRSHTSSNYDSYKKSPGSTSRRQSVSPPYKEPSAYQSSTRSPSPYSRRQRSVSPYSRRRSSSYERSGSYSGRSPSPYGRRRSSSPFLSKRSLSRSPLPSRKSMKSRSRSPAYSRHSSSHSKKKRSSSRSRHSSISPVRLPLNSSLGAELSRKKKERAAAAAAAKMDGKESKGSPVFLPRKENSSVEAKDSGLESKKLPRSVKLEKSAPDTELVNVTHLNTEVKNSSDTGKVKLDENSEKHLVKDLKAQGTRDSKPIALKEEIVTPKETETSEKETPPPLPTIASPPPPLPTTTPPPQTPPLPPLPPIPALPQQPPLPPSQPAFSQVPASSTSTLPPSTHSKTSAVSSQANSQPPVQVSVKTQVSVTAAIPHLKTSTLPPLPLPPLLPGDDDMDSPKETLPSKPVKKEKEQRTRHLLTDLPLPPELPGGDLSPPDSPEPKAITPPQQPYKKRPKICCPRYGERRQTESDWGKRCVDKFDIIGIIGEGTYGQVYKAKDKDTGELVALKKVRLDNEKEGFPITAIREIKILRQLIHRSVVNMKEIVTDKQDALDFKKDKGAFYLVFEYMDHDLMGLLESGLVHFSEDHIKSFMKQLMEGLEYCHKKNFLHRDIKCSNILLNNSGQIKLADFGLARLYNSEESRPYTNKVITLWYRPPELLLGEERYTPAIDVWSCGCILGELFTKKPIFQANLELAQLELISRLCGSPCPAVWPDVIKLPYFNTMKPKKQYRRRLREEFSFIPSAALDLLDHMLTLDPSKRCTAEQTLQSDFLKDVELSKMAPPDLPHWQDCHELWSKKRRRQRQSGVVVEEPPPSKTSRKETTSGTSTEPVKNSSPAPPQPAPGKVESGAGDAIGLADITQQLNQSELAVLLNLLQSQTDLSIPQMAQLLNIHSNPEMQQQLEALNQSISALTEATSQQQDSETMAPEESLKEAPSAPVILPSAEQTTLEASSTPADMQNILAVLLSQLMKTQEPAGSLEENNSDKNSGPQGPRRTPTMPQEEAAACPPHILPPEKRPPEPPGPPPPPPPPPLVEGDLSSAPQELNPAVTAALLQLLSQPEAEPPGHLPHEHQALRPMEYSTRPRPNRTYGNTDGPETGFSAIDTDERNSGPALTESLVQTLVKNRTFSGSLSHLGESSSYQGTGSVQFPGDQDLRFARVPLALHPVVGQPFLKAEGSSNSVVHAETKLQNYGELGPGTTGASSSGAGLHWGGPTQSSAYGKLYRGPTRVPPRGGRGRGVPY
T3 sequence (O75909 whole entry partner): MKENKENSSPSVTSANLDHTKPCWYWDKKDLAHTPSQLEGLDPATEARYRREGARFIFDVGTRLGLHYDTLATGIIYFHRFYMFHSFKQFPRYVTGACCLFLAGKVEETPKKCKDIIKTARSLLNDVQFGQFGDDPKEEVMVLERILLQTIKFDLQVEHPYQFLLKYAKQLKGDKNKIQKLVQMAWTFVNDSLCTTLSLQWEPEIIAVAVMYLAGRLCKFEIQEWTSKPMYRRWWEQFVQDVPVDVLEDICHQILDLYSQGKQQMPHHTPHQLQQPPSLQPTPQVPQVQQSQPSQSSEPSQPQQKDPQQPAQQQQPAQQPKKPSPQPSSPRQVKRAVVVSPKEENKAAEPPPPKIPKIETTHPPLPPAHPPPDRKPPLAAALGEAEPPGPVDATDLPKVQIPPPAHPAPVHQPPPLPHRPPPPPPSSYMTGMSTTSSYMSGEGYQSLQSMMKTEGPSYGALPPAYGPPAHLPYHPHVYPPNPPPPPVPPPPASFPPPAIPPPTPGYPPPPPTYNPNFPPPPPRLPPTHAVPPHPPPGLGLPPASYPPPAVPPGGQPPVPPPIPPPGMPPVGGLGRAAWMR
T2 sequence (P50750 whole entry): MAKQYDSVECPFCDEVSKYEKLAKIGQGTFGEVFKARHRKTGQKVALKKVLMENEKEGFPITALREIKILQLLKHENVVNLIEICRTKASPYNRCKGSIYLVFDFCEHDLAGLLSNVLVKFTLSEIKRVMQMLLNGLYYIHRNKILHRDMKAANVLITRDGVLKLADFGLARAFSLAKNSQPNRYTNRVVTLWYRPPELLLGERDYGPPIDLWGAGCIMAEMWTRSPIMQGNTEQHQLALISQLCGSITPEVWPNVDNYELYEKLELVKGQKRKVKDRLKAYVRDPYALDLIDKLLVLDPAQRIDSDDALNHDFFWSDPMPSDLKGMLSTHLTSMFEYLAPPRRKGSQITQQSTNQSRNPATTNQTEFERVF
T2 sequence (O60563 whole entry partner): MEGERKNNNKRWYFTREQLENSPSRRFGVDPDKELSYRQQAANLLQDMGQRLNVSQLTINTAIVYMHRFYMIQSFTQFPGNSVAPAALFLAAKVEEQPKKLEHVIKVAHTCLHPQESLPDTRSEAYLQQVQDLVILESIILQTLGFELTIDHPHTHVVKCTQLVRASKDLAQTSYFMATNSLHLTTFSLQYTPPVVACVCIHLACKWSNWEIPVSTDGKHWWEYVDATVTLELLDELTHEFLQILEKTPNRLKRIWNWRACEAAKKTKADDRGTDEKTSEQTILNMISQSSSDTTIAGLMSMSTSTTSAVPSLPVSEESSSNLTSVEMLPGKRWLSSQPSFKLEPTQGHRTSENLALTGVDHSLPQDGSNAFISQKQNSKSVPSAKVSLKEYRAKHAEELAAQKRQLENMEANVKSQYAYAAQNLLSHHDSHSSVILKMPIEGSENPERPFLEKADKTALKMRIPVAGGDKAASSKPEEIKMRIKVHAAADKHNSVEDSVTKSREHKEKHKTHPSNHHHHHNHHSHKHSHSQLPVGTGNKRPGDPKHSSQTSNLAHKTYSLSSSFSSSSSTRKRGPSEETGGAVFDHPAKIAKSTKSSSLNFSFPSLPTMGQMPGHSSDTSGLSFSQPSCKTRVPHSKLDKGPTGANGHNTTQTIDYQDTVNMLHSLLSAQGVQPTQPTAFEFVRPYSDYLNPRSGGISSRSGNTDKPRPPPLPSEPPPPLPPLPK

Compound | pIC50 [1] | pIC50 [2] | DC50 [3] | (IC50 CDK12 high ATP) to (Degradation DC50 CDK12) ratio [3]
Brc1cnn2c(NCc3nc4ccccc4[nH]3)nc(N3CCCC3)nc12 [Example 47, N-[(1H-benzimidazol-2-yl)methyl]-8-bromo-2-(pyrrolidin-1-yl)pyrazolo[1,5-a][1,3,5]triazin-4-amine] | 5.33 | < 4.70 | 5.75 nM | 1252
Cc1cnn2c(NCc3nc4c(F)c(F)ccc4[nH]3)nc(N3CC4CCC(C3)N4)nc12 [Example 400, 2-(3,8-diazabicyclo[3.2.1]octan-3-yl)-N-[(4,5-difluoro-1H-benzimidazol-2-yl)methyl]-8-methylpyrazolo[1,5-a][1,3,5]triazin-4-amine] | < 4.70 | < 4.70 | 6.15 nM | >2712
FC(F)Cc1cnn2c(NCc3nc4ccccc4[nH]3)nc(N3CCOCC3)nc12.O=C(O)C(F)(F)F [Example 444, trifluoroacetic acid N-[(1H-benzimidazol-2-yl)methyl]-8-(2,2-difluoroethyl)-2-(morpholin-4-yl)pyrazolo[1,5-a][1,3,5]triazin-4-amine] | 4.81 | < 4.70 | 7.88 nM | 1080
COc1ccccc1-c1nnc(CNc2nc(N3CCOCC3)nc3c(Br)cnn23)[nH]1 [Example 61, 8-bromo-N-{[5-(2-methoxyphenyl)-4H-1,2,4-triazol-3-yl]methyl}-2-(morpholin-4-yl)pyrazolo[1,5-a][1,3,5]triazin-4-amine] | 5.04 | < 4.70 | 5.11 nM | >3913
Cc1cnn2c(NCc3nc4ccccc4[nH]3)nc(N3CCOCC3)nc12 [Example 393, N-[(1H-benzimidazol-2-yl)methyl]-8-methyl-2-(morpholin-4-yl)pyrazolo[1,5-a][1,3,5]triazin-4-amine] | 5.00 | < 4.70 | 22.3 nM | >897
Fc1ccc2[nH]c(CNc3nc(N4CCOCC4)nc4c(C(F)(F)F)cnn34)nc2c1F [Example 426, N-[(4,5-difluoro-1H-benzimidazol-2-yl)methyl]-2-(morpholin-4-yl)-8-(trifluoromethyl)pyrazolo [1,5-a][1,3,5]triazin-4-amine] | 4.76 | 4.90 | 0.751 nM | 32
Brc1cnn2c(NCc3nc4ccccc4[nH]3)nc(N3CC4(COC4)C3)nc12 [Example 48, N-[(1H-benzimidazol-2-yl)methyl]-8-bromo-2-(2-oxa-6-azaspiro[3.3]heptan-6-yl)pyrazolo[1,5-a][1,3,5]triazin-4-amine] | 4.90 | < 4.70 | 20.7 nM | >276
CC(C)c1cnn2c(NCc3ncc(-c4ccccc4)[nH]3)nc(N(C)CC(C)(C)O)nc12 [Example 35, 2-methyl-1-{methyl[4-{[(5-phenyl-1H-imidazol-2-yl)methyl]amino}-8-(propan-2-yl)pyrazolo[1,5-a][1,3,5]triazin-2-yl]amino}propan-2-ol] | 5.77 | 5.04 | 27.3 nM | 81
COc1cccc2nc(CNc3nc(N4CCOCC4)nc4c(-c5ccnnc5)cnn34)[nH]c12.O=C(O)C(F)(F)F [Example 439, trifluoroacetic acid N-[(7-methoxy-1H-benzimidazol-2-yl)methyl]-2-(morpholin-4-yl)-8-(pyridazin-4-yl)pyrazolo[1,5-a][1,3,5]triazin-4-amine] | < 4.70 | < 4.70 | 4.65 nM | 850
Cc1cnn2c(NCc3nc4c(F)c(F)ccc4[nH]3)nc(N3CCOCC3)nc12 [Example 392, N-[(4,5-difluoro-1H-benzimidazol-2-yl)methyl]-8-methyl-2-(morpholin-4-yl)pyrazolo[1,5-a][1,3,5]triazin-4-amine] | < 4.70 | < 4.70 | 6.41 nM | 682

Now from value to compound:

pIC50 [1] | pIC50 [2] | DC50 [3] | (IC50 CDK12 high ATP) to (Degradation DC50 CDK12) ratio [3] | Compound
< 4.70 | < 4.70 | 114 nM | >175 | Brc1cnn2c(NCc3nc4ccccc4[nH]3)nc(OCCN3CCCC3)nc12 [Example 404, N-[(1H-benzimidazol-2-yl)methyl]-8-bromo-2-[2-(pyrrolidin-1-yl)ethoxy]pyrazolo[1,5-a][1,3,5]triazin-4-amine]
< 4.70 | < 4.70 | 138 nM | >57 | O=C(O)C(F)(F)F.c1ccc2[nH]c(CNc3nc(N4CCOCC4)nc4c(-c5ccnnc5)cnn34)nc2c1 [Example 438, trifluoroacetic acid N-[(1H-benzimidazol-2-yl)methyl]-2-(morpholin-4-yl)-8-(pyridazin-4-yl)pyrazolo[1,5-a][1,3,5]triazin-4-amine]
5.69 | < 4.70 | 15.1 nM | 352 | C[C@@H]1COCCN1c1nc(NCc2nc3ccccc3[nH]2)n2ncc(Br)c2n1 [Example 56, N-[(1H-benzimidazol-2-yl)methyl]-8-bromo-2-[(3R)-3-methylmorpholin-4-yl]pyrazolo[1,5-a][1,3,5]triazin-4-amine]
5.68 | 5.55 | 4.58 nM | 532 | Cc1cccc(-c2nnc(CNc3nc(N4CCOCC4)nc4c(Br)cnn34)[nH]2)c1 [Example 40, 8-bromo-N-{[5-(3-methylphenyl)-4H-1,2,4-triazol-3-yl]methyl}-2-(morpholin-4-yl)pyrazolo[1,5-a][1,3,5]triazin-4-amine]
< 4.70 | < 4.70 | 26.1 nM | >765 | COc1cccc2nc(CNc3nc(N4CCN(C)CC4)nc4c(-c5nccs5)cnn34)[nH]c12 [Example 416, N-[(7-methoxy-1H-benzimidazol-2-yl)methyl]-2-(4-methylpiperazin-1-yl)-8-(1,3-thiazol-2-yl)pyrazolo[1,5-a][1,3,5]triazin-4-amine]
5.79 | 5.89 | 7.81 nM | 222 | Clc1cccc(-c2nnc(CNc3nc(N4CCOCC4)nc4c(Br)cnn34)[nH]2)c1 [Example 51, 8-bromo-N-{[5-(3-chlorophenyl)-4H-1,2,4-triazol-3-yl]methyl}-2-(morpholin-4-yl)pyrazolo[1,5-a][1,3,5]triazin-4-amine]
< 4.70 | < 4.70 | 21.6 nM | 397 | FC(F)n1cc(-c2cnn3c(NCc4nc5ccccc5[nH]4)nc(N4CCOCC4)nc23)cn1 [Example 421, N-[(1H-benzimidazol-2-yl)methyl]-8-[1-(difluoromethyl)-1H-pyrazol-4-yl]-2-(morpholin-4-yl)pyrazolo[1,5-a][1,3,5]triazin-4-amine]
< 4.70 | < 4.70 | 80.6 nM | >248 | CN1CCN(c2nc(NCc3nc4cc(Cl)c(Cl)cc4[nH]3)n3ncc(-c4cnn(C)c4)c3n2)CC1 [Example 420, N-[(5,6-dichloro-1H-benzimidazol-2-yl)methyl]-2-(4-methylpiperazin-1-yl)-8-(1-methyl-1H-pyrazol-4-yl)pyrazolo[1,5-a][1,3,5]triazin-4-amine]
5.08 | 4.85 | 67.8 nM | 77 | CC(C)c1cnn2c(NCc3nnc(-c4ccccc4)[nH]3)nc(N3CCOCC3)nc12 [Example 33, 2-(morpholin-4-yl)-N-[(5-phenyl-4H-1,2,4-triazol-3-yl)methyl]-8-(propan-2-yl)pyrazolo[1,5-a][1,3,5]triazin-4-amine]
< 4.70 | < 4.70 | 8 nM | 800 | Cc1cnn2c(NCc3nc4c(F)c(F)ccc4[nH]3)nc(N(C)CC(C)(C)O)nc12 [Example 395, 1-[(4-{[(4,5-difluoro-1H-benzimidazol-2-yl)methyl]amino}-8-methylpyrazolo[1,5-a][1,3,5]triazin-2-yl)(methyl)amino]-2-methylpropan-2-ol]
5.80 | < 4.70 | 3.39 nM | 829 | CCc1cnn2c(NCc3nc4ccccc4[nH]3)nc(N3CCOCC3)nc12 [Example 431, N-[(1H-benzimidazol-2-yl)methyl]-8-ethyl-2-(morpholin-4-yl)pyrazolo[1,5-a][1,3,5]triazin-4-amine]
